# Reference: patent US9624485B2, “Genetic incorporation of unnatural amino acids into proteins in mammalian cells” (The Scripps Research Institute, priority 2006, dated 2017)
# Key:
# position 37 of GFP = experiment: Fidelity of unnatural amino acid incorporation by nano-RP LC/MS/MS and ESI TOF-MS; conditions: for wild type peptide signals in tandem MS of mutant GFP: nano-RP LC/MS/MS of tryptic fragments, T-REx CHO cells
# Description: To further characterize GFP-pMpa, the mutant protein was expressed in T-REx™ CHO cells transiently transfected with both pSWAN-pMpaRS and pSWAN-GFP37TAG. The protein was purified using an anti-myc antibody agarose column and then separated by SDS-PAGE. The GFP-pMpa band from the SDS-PAGE gel was digested with trypsin and analyzed by nanoscale reversed-phase liquid chromatography/mass spectrometry/mass spectrometry (nano-RP LC/MS/MS). In parallel, wild type GFP was purified from cells transfected with pcDNA4-GFP and subjected to the same analysis.
# Proteolysis of affinity purified proteins (performed for wild-type and pBpa samples) was carried out by overnight incubation of proteins at 37° C. with sequencing-grade modified trypsin (Promega) using a substrate/enzyme ratio of 10:1 (wt/wt) based on the estimated protein concentration in 100 mM triethylammonium bicarbonate buffer (pH 8.5). In-gel digestions (performed for pMpa, pAzpa, pApa, and pPpa samples) were performed according to a modified EMBL procedure (see the website for EMBL, Heidelberg, Germany, Bioanalytical Research Group). Briefly, gel slices were excised to approximately 1 mm×1 mm cubes, washed for 5 minutes with water, 15 minutes with acetonitrile, and dried in a vacuum centrifuge before being rehydrated at 0° C. for 30 minutes with 12.5 ng/μl of sequencing-grade modified trypsin in 50 mM triethylammonium bicarbonate buffer (pH 8.5). Excess buffer was removed and 20 μl of 50 mM triethylammonium bicarbonate buffer (pH 8.5) was added to the gel slices before incubating at 37° C. overnight. Peptides were extracted from the gel slices as described in the protocol.
# Nano-RP LC/MS/MS was performed with an HPLC pump, autosampler (Agilent Technologies, Palo Alto, Calif.), and an LTQ Orbitrap hybrid mass spectrometer (ThermoElectron, San Jose, Calif.). Tryptic digests were loaded with a pressure bomb onto a 75 μm i.d. precolumn packed with 4 cm of 5-μm Monitor C18 particles (Column Engineering, Ontario, Calif.) at a flow rate of approximately 2 μl/min. The precolumn was then connected to the HPLC pump and after several minutes of washing with solvent A the analytical column with integrated emitter tip (360 μm O.D.×75 μm i.d; 10 cm of 5 μM C18, ˜5-μm tip) was connected in series. The chromatographic profile was from 100% solvent A (0.1% aqueous acetic acid) to 50% solvent B (0.1% acetic acid in acetonitrile) in 40 min; the flow rate through the analytical column was ca. 100 nl/min.
# For data-dependent experiments, the mass spectrometer was programmed to first record a high-resolution Orbitrap scan then a full-scan ion trap spectrum (m/z 500-2,000). This was followed by 10 data-dependent MS/MS scans (relative collision energy=35%; 3-Da isolation window) triggered of the ion-trap scan and finally two targeted MS/MS scans. The first targeted MS/MS scan was set to isolate and fragment the doubly charged precursor ion of the predicted unnatural amino acid modified peptide
# at m/z 752.3. The raw data were searched against the MSDB database using MASCOT (Matrixscience, London, UK) for protein identification and to find the scans containing the target peptides with the unnatural amino acids as variable modification. To estimate fidelity at Y*37 of GFP-pMpa, single ion chromatograms (doubly charged precursor ions at m/z 752.3 for the wt and 759.3 for pMpa) and selected ion chromatograms (y9, y11, and y12) were integrated using the Xcalibur software package (ThermoElectron, San Jose, Calif.).
# Intact protein mass spectra were acquired on an automated LC/MS system (Waters, Milford, Mass.) consisting of a capillary LC with auto-sampler and a QTOF2 mass spectrometer. GFP-pMpa (0.1 mg/ml) was loaded onto a reversed-phase protein Captrap (Michrom Bioresources, Auburn, Calif.) for desalting with 0.1% acetic acid in water and eluted with 80% acetonitrile/0.1% acetic acid at 5 μl/min into the ESI source of the mass spectrometer. […]
# [1] = tested on: amber codon in GFP37TAG in T-REx CHO cells; experiment: Amber suppression of GFP37TAG by BstRNACUA^Tyr/EcTyrRS variants, Western blot of full-length GFP; format: cell-based, Chinese hamster; conditions: 8 mM in media, 24 hours
# Experimental: (§1) The ability of the six EcTyrRS variants together with BstRNACUA^Tyr to suppress the amber codon in GFP37TAG was then tested in the presence and absence of unnatural amino acids in the growth media. Transient transfection of cells with plasmids was carried out as described for wild type EcTyrRS. Six hours after transfection, the media were replaced by the fresh media containing 1 μg/ml tetracycline and supplemented with the corresponding unnatural amino acid (pMpa, 10 mM; pApa, 10 mM; pBpa, 1 mM; plpa, 8 mM; pAzpa, 5 mM; or pPpa, 1 mM). Cells were then grown 24 hours for T-REx™ CHO cell lines and 48 hours for T-REx™ 293 cell lines before harvesting. In both T-REx™ CHO and 293 cells, the expression of full length GFP37TAG was dependent upon the presence of unnatural amino acids in the growth media as indicated in FIG. 2 and FIG. 3. […]
# (§2) For Western blot analysis, harvested cells were lysed in RIPA buffer (Upstate Biotechnology/Millipore) with a 1:100 dilution of protease inhibitor cocktail (Sigma). […] Chemiluminescence was then detected with PIERCE ECL Western Blotting substrate. For T-REx™ 293 cells, the membranes were probed with anti-His-HRP (Invitrogen™; 1:5000 dilution) and then detected with PIERCE ECL Western Blotting substrate.
# [2] = tested on: amber codon in GFP37TAG in T-REx 293 cells; experiment: as above; format: cell-based, human; conditions: 8 mM in media, 48 hours
# Experimental: as §1, §2
# T-REx 293 cells = experiment: Cellular toxicity of the unnatural amino acid in growth media; format: cell-based, human; conditions: 8 mM in media
structure (smiles),measurement,setting,value
"[N-]=[N+]=Nc1ccc(C[C@H](N)C(=O)O)cc1 [pAzpa, p-azido-L-phenylalanine]",stability of the azido amino acid in mutant GFP seen by tandem MS,position 37 of GFP; mutant GFP containing pAzpa,Most of pAzpa decays to pAmpa
same,wild type peptide signals in tandem MS of mutant GFP,position 37 of GFP,No wild type signals could be detected
"CC(=O)c1ccc(C[C@H](N)C(=O)O)cc1 [pApa, p-acetyl-L-phenylalanine]",wild type peptide signals in tandem MS of mutant GFP,position 37 of GFP,No wild type signals could be detected
"N[C@@H](Cc1ccc(I)cc1)C(=O)O [plpa, p-iodo-L-phenylalanine]",expression level of GFP containing the unnatural amino acid,[1],low expression level
same,expression of GFP containing the unnatural amino acid,[2],no GFP expression
same,time until cells die (cellular toxicity),T-REx 293 cells,6 h
"COc1ccc(C[C@H](N)C(=O)O)cc1 [pMpa, p-methoxy-L-phenylalanine]",wild type GFP signals in intact protein ESI TOF-MS,position 37 of GFP; affinity purified GFP-pMpa,No wild type GFP signals
"N[C@@H](Cc1ccc(C(=O)c2ccccc2)cc1)C(=O)O [pBpa, p-benzoyl-L-phenylalanine]",wild type peptide signals in tandem MS of mutant GFP,position 37 of GFP,trace amount of the wild type peptide
"C#CCOc1ccc(C[C@H](N)C(=O)O)cc1 [pPpa, p-propargyloxyphenylalanine]",wild type peptide signals in tandem MS of mutant GFP,position 37 of GFP,No wild type signals could be detected
